According to patent US20220125765A1, “PHARMACEUTICAL COMBINATIONS COMPRISING MEBENDAZOLE AND A STRONG OR MODERATE CYP1A2 INHIBITOR” (ZEPHAPHARM LTD, priority 2019, published 2022):
Like-named read-outs stand apart in the source and are kept apart here.

How the values were obtained:
[1] = system: NBXF SH-SY5Y; assay: 2D monolayer CellTiter-Blue viability, neuroblastoma SH-SY5Y; format: cell-based; conditions: 72 h
Experimental: (§1) Seventeen compounds, including mebendazole (Batch no. […] Efficacy of compounds was assessed using CellTiter-Blue® Cell Viability Assay. Anti-tumor activity is expressed as absolute and relative IC50 and IC70 values, calculated by non-linear regression analysis.

[2] = Stability in human cryopreserved hepatocytes without and with cimetidine or furafylline (Example 5); format: in vitro ADME; conditions: human; for hepatocyte CLint at 1 µM: read-out: intrinsic clearance
Experimental: The final incubation volume was 500 μL. Two control compounds were included with each species, alongside appropriate vehicle control.
The samples were analysed for mebendazole or ethoxycoumarin using LC-MS/MS.
The final incubation volume was 500 μL.
A positive control compound, ethoxycoumarin, for CYP1A2 was included. […] The samples were analysed for mebendazole or ethoxycoumarin using LC-MS/MS.

[3] = biological target: CYP3A4 (Homo sapiens, UniProt P08684); assay: Cytochrome P450 reaction phenotyping, recombinant CYP3A4 (Bactosomes)
Chain of CYP3A4 (P08684 whole entry, canonical isoform): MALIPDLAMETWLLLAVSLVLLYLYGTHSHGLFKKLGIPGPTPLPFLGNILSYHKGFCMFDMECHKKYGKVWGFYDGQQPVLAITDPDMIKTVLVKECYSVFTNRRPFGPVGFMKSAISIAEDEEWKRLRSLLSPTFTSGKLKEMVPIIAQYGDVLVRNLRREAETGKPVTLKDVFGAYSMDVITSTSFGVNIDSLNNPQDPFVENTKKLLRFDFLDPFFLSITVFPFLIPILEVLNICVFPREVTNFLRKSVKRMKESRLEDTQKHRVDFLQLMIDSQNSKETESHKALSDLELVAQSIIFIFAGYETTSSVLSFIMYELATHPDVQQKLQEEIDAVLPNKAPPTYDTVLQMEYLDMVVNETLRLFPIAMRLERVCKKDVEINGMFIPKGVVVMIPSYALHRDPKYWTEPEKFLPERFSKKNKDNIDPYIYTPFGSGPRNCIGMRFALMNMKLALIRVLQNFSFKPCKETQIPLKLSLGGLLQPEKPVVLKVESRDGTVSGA
Experimental: Incubations were also performed using control Bactosomes™ (no P450 enzymes present) to reveal any non-enzymatic degradation. Control compounds known to be metabolised specifically by each P450 isoform were included. All incubations were performed singularly for each test compound.
Incubations were also performed using control Bactosomes™ (no P450 enzymes present) to reveal any non-enzymatic degradation. Control compounds known to be metabolised specifically by each P450 isoform were included. All incubations were performed singularly for each test compound. […] The reactions were stopped by transferring an aliquot of incubate to quench solvent at the appropriate time points, in a 1:3 ratio. The termination plates were centrifuged at 3,000 rpm for 20 min at 4° C. to precipitate the protein.

[4] = system: NBXF SK-N-MC; assay: 2D monolayer CellTiter-Blue viability, neuroblastoma SK-N-MC; format: cell-based; conditions: 72 h
Experimental: as §1

[5] = system: OVXF 1023L; assay: 2D monolayer CellTiter-Blue viability, ovarian cancer OVXF 1023L; format: cell-based; conditions: for IC50: Homo sapiens, OVXF1023, OVXF 1023, 72 h; for Test/Control (%) at Drug Concentration: 72 h
Experimental: Mebendazole was tested in vitro across a panel of 12 tumor cell lines of ovarian and renal cancer by using a 2D monolayer assay. […] OVXF 899L and RXF 486L are P-gp expressing, multidrug resistant cell lines.
Anti-tumor activity is expressed as absolute and relative IC50/70 values, calculated by 4-parameter non-linear curve fit.

COC(=O)Nc1nc2ccc(C(=O)c3ccccc3)cc2[nH]1 [Mebendazole, methyl N-(6-benzoyl-1H-benzimidazol-2-yl)carbamate]
Test/Control (%) at Drug Concentration ([1]; 1.0E+00 μM): 1% | Test/Control (%) at Drug Concentration ([1]; 1.0E+01 μM): 0% | Test/Control (%) at Drug Concentration ([1]; 1.0E+02 μM): −1% | Test/Control (%) at Drug Concentration ([1]; 1.0E−01 μM): 63% | Test/Control (%) at Drug Concentration ([1]; 1.0E−02 μM): 81% | Test/Control (%) at Drug Concentration ([1]; 3.2E+00 μM): 1% | Test/Control (%) at Drug Concentration ([1]; 3.2E+01 μM): 0% | Test/Control (%) at Drug Concentration ([1]; 3.2E−01 μM): 6% | Test/Control (%) at Drug Concentration ([1]; 3.2E−02 μM): 78% | Test/Control (%) at Drug Concentration ([1]; 3.2E−03 μM): 94% | half-life at 1 μM ([2]; cryopreserved hepatocytes (suspension), in the presence of cimetidine (30-300 μM), read-out: half-life, maximum): ≤ 2.32 h | half-life at 1 μM ([2]; cryopreserved hepatocytes (suspension), substrate 1 μM, no inhibitor, read-out: t1/2): 1.73 h | hepatocyte CLint at 1 µM ([2]; cryopreserved hepatocytes (suspension), with furafylline 10 µM, substrate 1 μM, 10 μM furafylline): 2.43 µL/min/1e6 cells | hepatocyte CLint at 1 µM ([2]; cryopreserved hepatocytes (suspension), with furafylline 30 µM, substrate 1 μM, 30 μM furafylline): 1.47 µL/min/1e6 cells | half-life at 1 μM ([2]; cryopreserved hepatocytes (suspension), with furafylline 3-30 µM (maximum half-life over 3, 10 and 30 µM), in the presence of furafylline (3-30 μM), read-out: half-life, maximum): ≤ 15.7 h | hepatocyte CLint at 1 µM ([2]; cryopreserved hepatocytes, substrate 1 μM, absence of inhibitor (inhibitor experiment)): 13.3 µL/min/1e6 cells | hepatocyte CLint at 1 µM ([2]; cryopreserved hepatocytes, substrate 1 μM, hepatocyte stability investigation (no inhibitor arm)): 19.1 µL/min/1e6 cells | hepatocyte CLint at 1 µM ([2]; cryopreserved hepatocytes, with cimetidine 30 μM, substrate 1 μM, 30 μM cimetidine): 13.2 µL/min/1e6 cells | half-life at 1 μM ([2]; cryopreserved hepatocytes, with cimetidine 30 μM, substrate 1 μM, cimetidine 30 μM, read-out: t1/2): 1.75 h | hepatocyte CLint at 1 µM ([2]; cryopreserved hepatocytes, with cimetidine 100 μM, substrate 1 μM, 100 μM cimetidine): 14.7 µL/min/1e6 cells | half-life at 1 μM ([2]; cryopreserved hepatocytes, with cimetidine 100 μM, substrate 1 μM, cimetidine 100 μM, read-out: t1/2): 1.57 h | hepatocyte CLint at 1 µM ([2]; cryopreserved hepatocytes, with cimetidine 300 μM, substrate 1 μM, 300 μM cimetidine): 9.98 µL/min/1e6 cells | half-life at 1 μM ([2]; cryopreserved hepatocytes, with cimetidine 300 μM, substrate 1 μM, cimetidine 300 μM, read-out: t1/2): 2.32 h | hepatocyte CLint at 1 µM ([2]; cryopreserved hepatocytes, with furafylline 3 μM, substrate 1 μM, 3 μM furafylline): 3.47 µL/min/1e6 cells | half-life at 1 μM ([2]; cryopreserved hepatocytes, with furafylline 3 μM, substrate 1 μM, furafylline 3 μM, read-out: t1/2): 6.65 h | half-life at 1 μM ([2]; cryopreserved hepatocytes, with furafylline 10 μM, substrate 1 μM, furafylline 10 μM, read-out: t1/2): 9.5 h | half-life at 1 μM ([2]; cryopreserved hepatocytes, with furafylline 30 μM, substrate 1 μM, furafylline 30 μM, read-out: t1/2): 15.7 h | Compound Remaining (% of 0 min) ([3]; CYP3A4, 5 μM, 0 min): 100 % of 0 min | Compound Remaining (% of 0 min) ([3]; CYP3A4, 5 μM, 5 min): 95.1 % of 0 min | Compound Remaining (% of 0 min) ([3]; CYP3A4, 5 μM, 15 min): 85.4 % of 0 min | Compound Remaining (% of 0 min) ([3]; CYP3A4, 5 μM, 30 min): 105 % of 0 min | Compound Remaining (% of 0 min) ([3]; CYP3A4, 5 μM, 45 min): 104 % of 0 min | % compound remaining ([3]; CYP3A4, 5 μM, time not stated): > 87.5% | t1/2 ([3]; CYP3A4, substrate 5 μM): >2.25 h | half-life at 5 μM ([3]; human, recombinant CYP3A4 (Bactosomes), pH 7.4): > 2.25 h | Test/Control (%) at Drug Concentration ([4]; 1.0E+00 μM): 33% | Test/Control (%) at Drug Concentration ([4]; 1.0E+01 μM): 1% | Test/Control (%) at Drug Concentration ([4]; 1.0E+02 μM): 0% | Test/Control (%) at Drug Concentration ([4]; 1.0E−01 μM): 90% | Test/Control (%) at Drug Concentration ([4]; 1.0E−02 μM): 88% | Test/Control (%) at Drug Concentration ([4]; 3.2E+00 μM): 6% | Test/Control (%) at Drug Concentration ([4]; 3.2E+01 μM): 1% | Test/Control (%) at Drug Concentration ([4]; 3.2E−01 μM): 38% | Test/Control (%) at Drug Concentration ([4]; 3.2E−02 μM): 100% | Test/Control (%) at Drug Concentration ([4]; 3.2E−03 μM): 101% | IC50 ([5]; read-out: Abs. IC50): > 3.2 µM | IC50 ([5]; read-out: Rel. IC50): > 3.2 µM | Test/Control (%) at Drug Concentration ([5]; OVXF 1023, 1.0E+00 μM): 69% | Test/Control (%) at Drug Concentration ([5]; OVXF 1023, 1.0E−01 μM): 94% | Test/Control (%) at Drug Concentration ([5]; OVXF 1023, 1.0E−02 μM): 101% | Test/Control (%) at Drug Concentration ([5]; OVXF 1023, 1.0E−03 μM): 104% | Test/Control (%) at Drug Concentration ([5]; OVXF 1023, 1.0E−04 μM): 107% | Test/Control (%) at Drug Concentration ([5]; OVXF 1023, 3.2E+00 μM): 62% | Test/Control (%) at Drug Concentration ([5]; OVXF 1023, 3.2E−01 μM): 82% | Test/Control (%) at Drug Concentration ([5]; OVXF 1023, 3.2E−02 μM): 98% | Test/Control (%) at Drug Concentration ([5]; OVXF 1023, 3.2E−03 μM): 101%
